Target: T1, GCS (Canis lupus familiaris, UniProt A0A8I3MXG6)
T1 construct: endogenous in cells; host or cells: MDCK (Madin-Darby canine kidney) cells, whole-cell lysate
T1 sequence (A0A8I3MXG6 1-394): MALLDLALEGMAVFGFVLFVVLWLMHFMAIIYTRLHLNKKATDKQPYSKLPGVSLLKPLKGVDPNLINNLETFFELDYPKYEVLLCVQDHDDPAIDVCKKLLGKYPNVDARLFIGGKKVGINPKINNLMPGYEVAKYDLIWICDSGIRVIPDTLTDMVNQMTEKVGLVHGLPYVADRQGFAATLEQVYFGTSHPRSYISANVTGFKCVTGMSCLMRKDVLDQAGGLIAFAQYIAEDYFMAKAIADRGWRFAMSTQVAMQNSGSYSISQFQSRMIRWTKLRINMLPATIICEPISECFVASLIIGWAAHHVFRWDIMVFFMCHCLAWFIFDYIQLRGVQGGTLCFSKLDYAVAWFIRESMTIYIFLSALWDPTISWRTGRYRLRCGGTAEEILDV
Assay: GCS enzymatic assay (MDCK cell lysate, NBD-ceramide to glucosylceramide, LC/MS)
Type: biochemical, canine
Details: Table 2, the table does not say which of the assays; for IC50: class symbols A, B, C, read-out: Data Range (IC50 values); for Data Range (% inhibition): class symbols D, E, F, NA (not active)
Summary of the method: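 IC50 or percent inhibition came from LC/MS/MS (ESI+, MRM) of NBD-ceramide and glucosylceramide, with tolbutamide as internal standard. The reaction used MDCK (canine) cell lysate as the enzyme source and was ended with acetonitrile. Mock wells received 0.1% DMSO.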

SMILES	IC50 [nM]	Data Range (% inhibition)
O=C(N[C@H](CN1CCCC1)[C@H](O)c1ccc2c(c1)OCCO2)[C@H]1CCN(c2ccc3cc(Cl)sc3c2)C1 [Compound 76E, (S)-1-(2-chlorobenzo[b]thiophen-6-yl)-N-((1R,2R)-1-(2,3-dihydrobenzo[b][1,4]dioxin-6-yl)-1-hydroxy-3-(pyrrolidin-1-yl)propan-2-yl)pyrrolidine-3-carboxamide]	1 to 30	–
O=C(N[C@H](CN1CCC1)[C@H](O)c1ccc2c(c1)OCCO2)[C@@H]1CCN(c2ccc(Cl)cc2)C1 [Compound 78, (R)-N-((1R,2R)-3-(azetidin-1-yl)-1-(2,3-dihydrobenzo[b][1,4]dioxin-6-yl)-1-hydroxypropan-2-yl)-1-(4-chlorophenyl)pyrrolidine-3-carboxamide]	1 to 30	–
O=C(N[C@H](CN1CCC1)[C@H](O)c1ccc2c(c1)OCCO2)[C@@H]1CCN(c2ccc3cc(F)ccc3c2)C1 [Compound 79, (R)-N-((1R,2R)-3-(azetidin-1-yl)-1-(2,3-dihydrobenzo[b][1,4]dioxin-6-yl)-1-hydroxypropan-2-yl)-1-(6-fluoronaphthalen-2-yl)pyrrolidine-3-carboxamide]	1 to 30	–
O=C(N[C@H](CN1CCC1)[C@H](O)c1ccc2c(c1)OCCO2)C1CCN(c2ccc3cc(F)ccc3c2)C1 (stereo partly drawn) [Compound 79A, N-((1R,2R)-3-(azetidin-1-yl)-1-(2,3-dihydrobenzo[b][1,4]dioxin-6-yl)-1-hydroxypropan-2-yl)-1-(6-fluoronaphthalen-2-yl)pyrrolidine-3-carboxamide]	1 to 30	–
O=C(N[C@H](CN1CCC1)[C@H](O)c1ccc2c(c1)OCCO2)[C@H]1CCN(c2ccc3cc(F)ccc3c2)C1 [Compound 79B, (S)-N-((1R,2R)-3-(azetidin-1-yl)-1-(2,3-dihydrobenzo[b][1,4]dioxin-6-yl)-1-hydroxypropan-2-yl)-1-(6-fluoronaphthalen-2-yl)pyrrolidine-3-carboxamide]	–	E (50-74% (or less than 75%))
O=C(N[C@H](CN1CCCC1)[C@H](O)c1ccc2c(c1)OCCO2)[C@@H]1CCN(c2ccc3c(c2)CCCC3)C1 [Compound 80, (R)-N-((1R,2R)-1-(2,3-dihydrobenzo[b][1,4]dioxin-6-yl)-1-hydroxy-3-(pyrrolidin-1-yl)propan-2-yl)-1-(5,6,7,8-tetrahydronaphthalen-2-yl)pyrrolidine-3-carboxamide]	–	E (50-74% (or less than 75%))
O=C(N[C@H](CN1CCCC1)[C@H](O)c1ccc2c(c1)OCCO2)C1CCN(c2ccc3c(c2)CCCC3)C1 (stereo partly drawn) [Compound 80G, N-((1R,2R)-1-(2,3-dihydrobenzo[b][1,4]dioxin-6-yl)-1-hydroxy-3-(pyrrolidin-1-yl)propan-2-yl)-1-(5,6,7,8-tetrahydronaphthalen-2-yl)pyrrolidine-3-carboxamide]	1 to 30	–
O=C(N[C@H](CN1CCCC1)[C@H](O)c1ccc2c(c1)OCCO2)[C@H]1CCN(c2ccc3c(c2)CCCC3)C1 [Compound 80H, (S)-N-((1R,2R)-1-(2,3-dihydrobenzo[b][1,4]dioxin-6-yl)-1-hydroxy-3-(pyrrolidin-1-yl)propan-2-yl)-1-(5,6,7,8-tetrahydronaphthalen-2-yl)pyrrolidine-3-carboxamide]	1 to 30	–
O=C(N[C@H](CN1CCCC1)[C@H](O)c1cc(F)c2c(c1)OCCO2)[C@@H]1CCN(c2ccc3ccccc3c2)C1 [Compound 81, (R)-N-((1R,2R)-1-(8-fluoro-2,3-dihydrobenzo[b][1,4]dioxin-6-yl)-1-hydroxy-3-(pyrrolidin-1-yl)propan-2-yl)-1-(naphthalen-2-yl)pyrrolidine-3-carboxamide]	1 to 30	–
Cc1cc(N2CC[C@@H](C(=O)N[C@H](CN3CCCC3)[C@H](O)c3ccc4c(c3)OCCO4)C2)cc(C)n1 [Compound 82, (R)-N-((1R,2R)-1-(2,3-dihydrobenzo[b][1,4]dioxin-6-yl)-1-hydroxy-3-(pyrrolidin-1-yl)propan-2-yl)-1-(2,6-dimethylpyridin-4-yl)pyrrolidine-3-carboxamide]	–	NA (not active—a negative value was generated for % inhibition)
Cc1cc(N2CC[C@H](C(=O)N[C@H](CN3CCCC3)[C@H](O)c3ccc4c(c3)OCCO4)C2)cc(C)n1 [Compound 82E, (S)-N-((1R,2R)-1-(2,3-dihydrobenzo[b][1,4]dioxin-6-yl)-1-hydroxy-3-(pyrrolidin-1-yl)propan-2-yl)-1-(2,6-dimethylpyridin-4-yl)pyrrolidine-3-carboxamide]	–	NA (not active—a negative value was generated for % inhibition)
O=C(N[C@H](CN1CCCC1)[C@H](O)c1ccc2c(c1)OCCO2)[C@@H]1CCN(c2ccc3nccnc3c2)C1 [Compound 83, (R)-N-((1R,2R)-1-(2,3-dihydrobenzo[b][1,4]dioxin-6-yl)-1-hydroxy-3-(pyrrolidin-1-yl)propan-2-yl)-1-(quinoxalin-6-yl)pyrrolidine-3-carboxamide]	–	F (1-49% (or less than 50%))
O=C(N[C@H](CN1CCCC1)[C@H](O)c1ccc2c(c1)OCCO2)C1CCN(c2ccc3nccnc3c2)C1 (stereo partly drawn) [Compound 83C, N-((1R,2R)-1-(2,3-dihydrobenzo[b][1,4]dioxin-6-yl)-1-hydroxy-3-(pyrrolidin-1-yl)propan-2-yl)-1-(quinoxalin-6-yl)pyrrolidine-3-carboxamide]	–	F (1-49% (or less than 50%))
O=C(N[C@H](CN1CCCC1)[C@H](O)c1ccc2c(c1)OCCO2)[C@H]1CCN(c2ccc3nccnc3c2)C1 [Compound 83D, (S)-N-((1R,2R)-1-(2,3-dihydrobenzo[b][1,4]dioxin-6-yl)-1-hydroxy-3-(pyrrolidin-1-yl)propan-2-yl)-1-(quinoxalin-6-yl)pyrrolidine-3-carboxamide]	–	NA (not active—a negative value was generated for % inhibition)
O=C(N[C@H](CN1CCCC1)[C@H](O)c1ccc(OC2CC2)c(Cl)c1)[C@@H]1CCN(c2ccc3cc(F)ccc3c2)C1 [Compound 84, (R)-N-((1R,2R)-1-(3-chloro-4-cyclopropoxyphenyl)-1-hydroxy-3-(pyrrolidin-1-yl)propan-2-yl)-1-(6-fluoronaphthalen-2-yl)pyrrolidine-3-carboxamide]	1 to 30	–
O=C(N[C@H](CN1CCCC1)[C@H](O)c1ccc(OC2CC2)c(Cl)c1)[C@H]1CCN(c2ccc3cc(F)ccc3c2)C1 [Compound 84A, (S)-N-((1R,2R)-1-(3-chloro-4-cyclopropoxyphenyl)-1-hydroxy-3-(pyrrolidin-1-yl)propan-2-yl)-1-(6-fluoronaphthalen-2-yl)pyrrolidine-3-carboxamide]	–	F (1-49% (or less than 50%))
O=C(N[C@H](CN1CCC1)[C@H](O)c1cc(F)c2c(c1)OCCO2)[C@@H]1CCN(c2ccc3ccccc3c2)C1 [Compound 85, (R)-N-((1R,2R)-3-(azetidin-1-yl)-1-(8-fluoro-2,3-dihydrobenzo[b][1,4]dioxin-6-yl)-1-hydroxypropan-2-yl)-1-(naphthalen-2-yl)pyrrolidine-3-carboxamide]	1 to 30	–
O=C(N[C@H](CN1CCC1)[C@H](O)c1ccc(OC2CC2)c(Cl)c1)[C@@H]1CCN(c2ccc3ccccc3c2)C1 [Compound 86, (R)-N-((1R,2R)-3-(azetidin-1-yl)-1-(3-chloro-4-cyclopropoxyphenyl)-1-hydroxypropan-2-yl)-1-(naphthalen-2-yl)pyrrolidine-3-carboxamide]	1 to 30	–
CC(C)(O)COc1ccc([C@@H](O)[C@@H](CN2CCCC2)NC(=O)[C@@H]2CCN(c3ccc(Cl)cc3)C2)cc1Cl [Compound 87, (R)-N-((1R,2R)-1-(3-chloro-4-(2-hydroxy-2-methylpropoxy)phenyl)-1-hydroxy-3-(pyrrolidin-1-yl)propan-2-yl)-1-(4-chlorophenyl)pyrrolidine-3-carboxamide]	1 to 30	–
O=C(N[C@H](CN1CCCC1)[C@H](O)c1ccc2c(c1)OCCO2)[C@@H]1CCN(c2ccc3cc(F)ccc3c2Cl)C1 [Compound 88, (R)-1-(1-chloro-6-fluoronaphthalen-2-yl)-N-((1R,2R)-1-(2,3-dihydrobenzo[b][1,4]dioxin-6-yl)-1-hydroxy-3-(pyrrolidin-1-yl)propan-2-yl)pyrrolidine-3-carboxamide]	–	D (75-100%)
O=C(N[C@H](CN1CCCC1)[C@H](O)c1ccc2c(c1)OCCO2)C1CCN(c2ccc3cc(F)ccc3c2Cl)C1 (stereo partly drawn) [Compound 88C, 1-(1-chloro-6-fluoronaphthalen-2-yl)-N-((1R,2R)-1-(2,3-dihydrobenzo[b][1,4]dioxin-6-yl)-1-hydroxy-3-(pyrrolidin-1-yl)propan-2-yl)pyrrolidine-3-carboxamide]	–	D (75-100%)
O=C(N[C@H](CN1CCCC1)[C@H](O)c1ccc2c(c1)OCCO2)[C@H]1CCN(c2ccc3cc(F)ccc3c2Cl)C1 [Compound 88D, (S)-1-(1-chloro-6-fluoronaphthalen-2-yl)-N-((1R,2R)-1-(2,3-dihydrobenzo[b][1,4]dioxin-6-yl)-1-hydroxy-3-(pyrrolidin-1-yl)propan-2-yl)pyrrolidine-3-carboxamide]	–	F (1-49% (or less than 50%))
O=C(N[C@H](CN1CCC1)[C@H](O)c1cc(F)c2c(c1)OCCO2)[C@@H]1CCN(c2ccc3cc(Cl)ccc3c2)C1 [Compound 89, (R)-N-((1R,2R)-3-(azetidin-1-yl)-1-(8-fluoro-2,3-dihydrobenzo[b][1,4]dioxin-6-yl)-1-hydroxypropan-2-yl)-1-(6-chloronaphthalen-2-yl)pyrrolidine-3-carboxamide]	1 to 30	–
